Measurements from publication PMC7403315, “Cyclic peptide FXII inhibitor provides safe anticoagulation in a thrombosis model and in artificial lungs” (Nature Communications, 2020).
Values joined by “and” are separate entries in the source; they are usually repeats but may differ in a detail not shown here. Equal values may be shown once. Starred links: 1 amine or outer side, 2 acyl side, 3 side chain; linkers in the order of their positions; H or OH if unused. Positions of bridges follow the written chain, without caps; N, C: chain ends. Non-standard residues stand in square brackets, D forms with d. Residues, ends and D or L forms follow the SMILES beside them. TATA = O=C(CC[*:1])N1CN(C(=O)CC[*:2])CN(C(=O)CC[*:3])C1; Phe(4-F) = N[C@@H](Cc1ccc(F)cc1)C(=O)O; β3hR = N=C(N)NCCC[C@H](N)CC(=O)O

What was measured:
Assay in all cases: Specificity profiling, residual protease activity
Type in all cases: biochemical
factor XIa = target: T1, factor XIa (Homo sapiens, UniProt P03951)
T1 construct: 1.5 nM, factor XIa (Innovative Research) 6 nM, plasma kallikrein (Innovative Research) 0.25; purchased Innovative Research
T1 sequence (P03951 388-625 limits assumed): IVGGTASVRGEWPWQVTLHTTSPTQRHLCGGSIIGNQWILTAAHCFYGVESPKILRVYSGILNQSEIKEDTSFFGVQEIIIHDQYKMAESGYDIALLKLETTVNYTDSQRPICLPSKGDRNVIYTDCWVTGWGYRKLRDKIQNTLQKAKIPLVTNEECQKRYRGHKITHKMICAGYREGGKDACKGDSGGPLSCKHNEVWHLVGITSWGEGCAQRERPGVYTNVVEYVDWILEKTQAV
T1 sequence (P03951 19-387 limits assumed): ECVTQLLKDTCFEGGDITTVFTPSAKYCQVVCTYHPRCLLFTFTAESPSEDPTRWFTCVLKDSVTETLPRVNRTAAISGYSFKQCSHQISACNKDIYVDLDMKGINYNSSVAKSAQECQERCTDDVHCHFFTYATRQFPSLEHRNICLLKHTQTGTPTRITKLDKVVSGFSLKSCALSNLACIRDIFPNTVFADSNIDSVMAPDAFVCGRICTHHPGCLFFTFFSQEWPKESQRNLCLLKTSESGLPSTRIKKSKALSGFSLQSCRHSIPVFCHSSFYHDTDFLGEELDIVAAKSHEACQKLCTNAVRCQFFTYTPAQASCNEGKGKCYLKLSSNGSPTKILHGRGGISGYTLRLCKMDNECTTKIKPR
Procedure: (§1) Protease inhibition assays
(§2) The inhibitory activity of peptides was determined by measuring the residual protease activity with a fluorogenic substrate. The assay was performed in buffer containing 10 mM Tris-Cl, pH […]
(§3) 1% (v/v) DMSO in a volume of 150 µl. […]
(§4) HFXIIAB) were used at final concentrations of 0.4 nM. The reaction was pipetted as follows: 50 µl of bicyclic peptide in assay buffer were added to 50 µl of FXIIa in assay buffer and incubated for 10 minutes at 25°C before 50 µl of 150 µM fluorogenic substrate in assay buffer were added to measure the residual protease activity with an Infinite M200Pro fluorescence plate reader (excitation at 368 nm, emission at 467 nm; Tecan) for a period of 30 minutes with a read every minute at 25°C. The Tecan software i-control (version 1.1) was used for data analysis. Stock solutions of 1 mM bicyclic peptide were prepared by either dissolving the unpurified cyclization reaction with water or by dissolving purified and lyophilized peptide in water. The bicyclic peptides were serially diluted two-fold using assay buffer. Sigmoidal curves were fitted to the data using the following dose response equation (1), wherein x = peptide concentration, y = % protease activity, and p = Hill slope. IC50 values were derived from the fitted curve.
(§5) The inhibition constants (Ki) were calculated according to the equation of Cheng and Prusoff, Ki = IC50/(1+([S]0/Km), wherein IC50 is the functional strength of the inhibitor, [S]0 is the total substrate concentration, and Km is the Michaelis-Menten constant. […]
(§6) For testing the specificity of the bicyclic peptides, the following final concentrations of human serine proteases were used: tPA (Molecular Innovations) 7.5 nM, uPA (Molecular Innovations) 1.5 nM, factor XIa (Innovative Research) 6 nM, plasma kallikrein (Innovative Research) 0.25 nM, thrombin (Molecular Innovations) 1 nM, plasmin (Molecular Innovations) 2.5 nM, trypsin (Molecular Innovations) 0.05 nM, factor VIIa (Haematologic Technologies) 50 nM, factor Xa […]
(§7) (Haematologic Technologies) 6 nM, and activated protein C (APC) 5 nM. Two-fold dilutions of the peptide were prepared that ranged from 0.04 to 40 µM. The following fluorogenic substrates were used at a final concentration of 50 µM: Z-Phe-Arg-AMC (Bachem) for plasma kallikrein; Boc-Phe-Ser-Arg-AMC (Bachem) for factor XIa; Z-Gly-Gly-Arg-AMC (Bachem) for tPA, uPA, thrombin, and trypsin; H-D-Val-Leu-Lys-AMC (Bachem) for plasmin; and D-Phe-Pro-Arg-ANSNH-C4H9 (Haematologic Technologies) for FVIIa and FXa. For APC, the chromogenic substrate pyroGlu-Pro-Arg-pNA (S2366) was used at a concentration of 400 µM. […]

plasma kallikrein = target: T2, plasma kallikrein (Homo sapiens, UniProt P03952)
T2 construct: 1.5 nM, factor XIa (Innovative Research) 6 nM, plasma kallikrein (Innovative Research) 0.25; purchased Innovative Research
T2 sequence (P03952 391-638 limits assumed): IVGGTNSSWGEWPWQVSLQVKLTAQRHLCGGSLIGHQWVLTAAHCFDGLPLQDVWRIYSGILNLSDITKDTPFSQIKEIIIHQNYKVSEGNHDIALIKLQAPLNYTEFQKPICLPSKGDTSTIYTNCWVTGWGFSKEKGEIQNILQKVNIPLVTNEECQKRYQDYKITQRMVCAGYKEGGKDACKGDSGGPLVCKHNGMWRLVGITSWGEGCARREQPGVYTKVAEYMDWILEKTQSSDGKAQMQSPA
T2 sequence (P03952 20-390 limits assumed): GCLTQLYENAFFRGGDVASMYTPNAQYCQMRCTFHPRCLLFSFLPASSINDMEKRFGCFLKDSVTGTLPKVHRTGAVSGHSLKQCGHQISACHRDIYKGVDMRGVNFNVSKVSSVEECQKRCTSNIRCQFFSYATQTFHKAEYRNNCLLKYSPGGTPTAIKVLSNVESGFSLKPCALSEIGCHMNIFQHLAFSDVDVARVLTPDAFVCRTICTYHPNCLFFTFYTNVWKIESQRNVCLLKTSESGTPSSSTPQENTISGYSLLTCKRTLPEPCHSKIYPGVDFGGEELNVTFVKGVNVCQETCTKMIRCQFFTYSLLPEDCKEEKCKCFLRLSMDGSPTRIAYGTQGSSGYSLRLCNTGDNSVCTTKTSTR
Procedure: as §1, §2, §3, §4, §5, §6, §7

uPA = target: T3, uPA (Homo sapiens, UniProt P00749)
T3 construct: purchased Molecular Innovations
Procedure: as §1, §2, §3, §4, §5, §6, §7

plasmin = target: T4, plasmin (Homo sapiens, UniProt P00747)
T4 construct: nM, thrombin (Molecular Innovations) 1 nM, plasmin (Molecular Innovations) 2.5 nM, trypsin; purchased Molecular Innovations
T4 sequence (P00747 581-810 limits assumed): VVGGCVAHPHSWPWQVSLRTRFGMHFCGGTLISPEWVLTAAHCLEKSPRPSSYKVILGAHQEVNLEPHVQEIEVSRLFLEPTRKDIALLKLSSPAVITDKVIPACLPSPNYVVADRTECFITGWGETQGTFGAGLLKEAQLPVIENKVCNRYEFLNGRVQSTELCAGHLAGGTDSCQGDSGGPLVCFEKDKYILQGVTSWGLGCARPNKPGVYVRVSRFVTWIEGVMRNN
T4 sequence (P00747 97-580 limits assumed): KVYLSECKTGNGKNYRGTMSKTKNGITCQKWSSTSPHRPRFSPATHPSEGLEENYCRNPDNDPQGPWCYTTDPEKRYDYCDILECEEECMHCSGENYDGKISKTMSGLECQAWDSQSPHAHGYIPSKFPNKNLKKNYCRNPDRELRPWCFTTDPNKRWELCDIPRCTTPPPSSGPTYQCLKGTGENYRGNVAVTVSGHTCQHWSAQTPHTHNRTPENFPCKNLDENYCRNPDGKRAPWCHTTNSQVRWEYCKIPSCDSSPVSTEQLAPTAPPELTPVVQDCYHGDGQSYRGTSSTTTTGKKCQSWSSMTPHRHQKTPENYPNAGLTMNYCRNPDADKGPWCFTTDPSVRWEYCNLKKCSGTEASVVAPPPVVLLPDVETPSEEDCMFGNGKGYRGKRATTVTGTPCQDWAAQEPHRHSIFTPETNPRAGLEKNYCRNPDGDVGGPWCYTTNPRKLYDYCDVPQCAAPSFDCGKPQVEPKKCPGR
Procedure: as §1, §2, §3, §4, §5, §6, §7

[1] = inhibitor 39.0625 nM, 0.0390625 µM
[2] = inhibitor 78.125 nM, 0.078125 µM
[3] = inhibitor 156.25 nM, 0.15625 µM
[4] = inhibitor 40000 nM (40 µM), 40 µM

## CC(C)C[C@@H]1NC(=O)[C@H](CCC(N)=O)NC(=O)[C@H](Cc2c[nH]cn2)NC(=O)[C@@H]2CSCCC(=O)N3CN(CN(C3)C(=O)CCSC[C@H](NC(=O)[C@@H](CO)NC(=O)[C@H](N)CCCNC(=N)N)C(=O)N[C@@H](Cc3ccc(F)cc3)C(=O)N[C@@H](CCCNC(=N)N)C(=O)N[C@@H](CC(C)C)C(=O)N3CCC[C@H]3C(=O)N2)C(=O)CCSC[C@@H](C(N)=O)NC(=O)C[C@H](CCCNC(=N)N)NC1=O [FXII900] (H-[dR][dS]C[Phe(4-F)]RLPCHQL[β3hR]C-NH2; linker 3-8-13 via TATA)
Factor XIa; [1]
  Residual activity of FXIa: 100.642%
Factor XIa; inhibitor 39.0625 nM, read-out: Residual activity of FXIa
  remaining activity at 0.0390625 µM: 96.6%
Factor XIa; [2]
  Residual activity of FXIa: 103.852%
Factor XIa; inhibitor 78.125 nM, read-out: Residual activity of FXIa
  remaining activity at 0.078125 µM: 93.8%
Factor XIa; [3]
  Residual activity of FXIa: 98.179%
Factor XIa; inhibitor 156.25 nM, read-out: Residual activity of FXIa
  remaining activity at 0.15625 µM: 94.7%
Factor XIa; inhibitor 312.5 nM, 0.3125 µM
  Residual activity of FXIa: 98.2463%
Factor XIa; inhibitor 312.5 nM, read-out: Residual activity of FXIa
  remaining activity at 0.3125 µM: 97.5%
Factor XIa; inhibitor 625 nM, 0.625 µM
  Residual activity of FXIa: 97.4314%
Factor XIa; inhibitor 625 nM, read-out: Residual activity of FXIa
  remaining activity at 0.625 µM: 94.9%
Factor XIa; inhibitor 1250 nM, 1.25 µM
  Residual activity of FXIa: 98.4364%
Factor XIa; inhibitor 1250 nM, read-out: Residual activity of FXIa
  remaining activity at 1.25 µM: 94.1%
Factor XIa; inhibitor 2500 nM, […]
  Residual activity of FXIa: 98.6547%
Factor XIa; inhibitor 2500 nM, read-out: Residual activity of FXIa
  remaining activity at […]: 91.5%
Factor XIa; inhibitor 5000 nM, 5 µM
  Residual activity of FXIa: 98.6945%
Factor XIa; inhibitor 5000 nM, read-out: Residual activity of FXIa
  remaining activity at 5 µM: 98.9%
Factor XIa; inhibitor 10000 nM, 10 µM
  Residual activity of FXIa: 99.1545%
Factor XIa; inhibitor 10000 nM, read-out: Residual activity of FXIa
  remaining activity at 10 µM: 97.3%
Factor XIa; inhibitor 20000 nM, 20 µM
  Residual activity of FXIa: 95.8964%
Factor XIa; inhibitor 20000 nM, read-out: Residual activity of FXIa
  remaining activity at 20 µM: 96.3%
Factor XIa; [4]
  Residual activity of FXIa: 95.5908% and 94.7249%
Factor XIa; inhibitor 40000 nM (40 µM), read-out: Residual activity of FXIa
  remaining activity at 40 µM: 95.1%
Factor XIa; read-out: Ki FXIa
  Ki: > 40 µM
Plasma kallikrein
  Ki: > 40 µM
Plasma kallikrein; inhibitor 39.0625 nM
  remaining activity at 0.0390625 µM: 98.1%
Plasma kallikrein; [1]
  Residual activity of Plasma kallikrein: 100.436%
Plasma kallikrein; inhibitor 78.125 nM
  remaining activity at 0.078125 µM: 98.4%
Plasma kallikrein; [2]
  Residual activity of Plasma kallikrein: 99.938%
Plasma kallikrein; inhibitor 156.25 nM
  remaining activity at 0.15625 µM: 98.9%
Plasma kallikrein; [3]
  Residual activity of Plasma kallikrein: 99.0018%
Plasma kallikrein; inhibitor 312.5 nM
  remaining activity at 0.3125 µM: 102%
Plasma kallikrein; inhibitor 312.5 nM, 0.3125 µM
  Residual activity of Plasma kallikrein: 98.8676%
Plasma kallikrein; inhibitor 625 nM
  remaining activity at 0.625 µM: 101%
Plasma kallikrein; inhibitor 625 nM, 0.625 µM
  Residual activity of Plasma kallikrein: 98.0454%
Plasma kallikrein; inhibitor 1250 nM
  remaining activity at 1.25 µM: 101%
Plasma kallikrein; inhibitor 1250 nM, 1.25 µM
  Residual activity of Plasma kallikrein: 97.0056%
Plasma kallikrein; inhibitor 2500 nM
  remaining activity at […]: 96%
Plasma kallikrein; inhibitor 2500 nM, […]
  Residual activity of Plasma kallikrein: 95.4747%
Plasma kallikrein; inhibitor 5000 nM
  remaining activity at 5 µM: 92.8%
Plasma kallikrein; inhibitor 5000 nM, 5 µM
  Residual activity of Plasma kallikrein: 93.0245%
Plasma kallikrein; inhibitor 10000 nM
  remaining activity at 10 µM: 91.9%
Plasma kallikrein; inhibitor 10000 nM, 10 µM
  Residual activity of Plasma kallikrein: 91.0418%
Plasma kallikrein; inhibitor 20000 nM
  remaining activity at 20 µM: 84.1%
Plasma kallikrein; inhibitor 20000 nM, 20 µM
  Residual activity of Plasma kallikrein: 81.6415%
Plasma kallikrein; inhibitor 40000 nM (40 µM)
  remaining activity at 40 µM: 72%
Plasma kallikrein; [4]
  Residual activity of Plasma kallikrein: 73.9098% and 69.1761%
uPA
  Ki: > 40 µM
uPA; inhibitor 39.0625 nM
  remaining activity at 0.0390625 µM: 96.1%
uPA; [1]
  Residual activity of uPa: 99.3438%
uPA; inhibitor 78.125 nM
  remaining activity at 0.078125 µM: 94.9%
uPA; [2]
  Residual activity of uPa: 99.5842%
uPA; inhibitor 156.25 nM
  remaining activity at 0.15625 µM: 99.6%
uPA; [3]
  Residual activity of uPa: 106.929%
uPA; inhibitor 312.5 nM
  remaining activity at 0.3125 µM: 98.2%
uPA; inhibitor 312.5 nM, 0.3125 µM
  Residual activity of uPa: 103.987%
uPA; inhibitor 625 nM
  remaining activity at 0.625 µM: 98.8%
uPA; inhibitor 625 nM, 0.625 µM
  Residual activity of uPa: 103.035%
uPA; inhibitor 1250 nM
  remaining activity at 1.25 µM: 100%
uPA; inhibitor 1250 nM, 1.25 µM
  Residual activity of uPa: 106.211%
uPA; inhibitor 2500 nM
  remaining activity at […]: 101%
uPA; inhibitor 2500 nM, […]
  Residual activity of uPa: 90.2133%
uPA; inhibitor 5000 nM
  remaining activity at 5 µM: 99.4%
uPA; inhibitor 5000 nM, 5 µM
  Residual activity of uPa: 106.237%
uPA; inhibitor 10000 nM
  remaining activity at 10 µM: 96.6%
uPA; inhibitor 10000 nM, 10 µM
  Residual activity of uPa: 102.075%
uPA; inhibitor 20000 nM
  remaining activity at 20 µM: 96.3%
uPA; inhibitor 20000 nM, 20 µM
  Residual activity of uPa: 101.698%
uPA; inhibitor 40000 nM (40 µM)
  remaining activity at 40 µM: 98.7%
uPA; [4]
  Residual activity of uPa: 97.4594% and 105.626%
plasmin
  Ki: > 40 µM
plasmin; inhibitor 39.0625 nM
  remaining activity at 0.0390625 µM: 101%
plasmin; [1]
  Residual activity of Plasmin: 100% and 98.04%
plasmin; inhibitor 78.125 nM
  remaining activity at 0.078125 µM: 99.7%
plasmin; [2]
  Residual activity of Plasmin: 92.966% and 98.2808%
plasmin; inhibitor 156.25 nM
  remaining activity at 0.15625 µM: 99.4%
plasmin; [3]
  Residual activity of Plasmin: 100.413% and 98.2682%
plasmin; inhibitor 312.5 nM
  remaining activity at 0.3125 µM: 98.2%
plasmin; inhibitor 312.5 nM, 0.3125 µM
  Residual activity of Plasmin: 95.1408% and 95.4545%
plasmin; inhibitor 625 nM
  remaining activity at 0.625 µM: 98.8%
plasmin; inhibitor 625 nM, 0.625 µM
  Residual activity of Plasmin: 96.2495% and 97.8119%
plasmin; inhibitor 1250 nM
  remaining activity at 1.25 µM: 95.1%
plasmin; inhibitor 1250 nM, 1.25 µM
  Residual activity of Plasmin: 99.629% and 97.1835%
plasmin; inhibitor 2500 nM
  remaining activity at […]: 92%
plasmin; inhibitor 5000 nM
  remaining activity at 5 µM: 96%
plasmin; inhibitor 5000 nM, 5 µM
  Residual activity of Plasmin: 97.8045% and 97.3192%
plasmin; inhibitor 10000 nM
  remaining activity at 10 µM: 93.7%
plasmin; inhibitor 10000 nM, 10 µM
  Residual activity of Plasmin: 101.477% and 94.8276%
plasmin; inhibitor 20000 nM
  remaining activity at 20 µM: 87.5%
plasmin; inhibitor 20000 nM, 20 µM
  Residual activity of Plasmin: 91.7224% and 90.5875%
plasmin; inhibitor 40000 nM (40 µM)
  remaining activity at 40 µM: 86 ± 5%
plasmin; [4]
  Residual activity of Plasmin: 82.6102% and 91.6986% and 84.2986%
